Test results: ChEMBL document CHEMBL5634184, “Direct Inhibition of BK Channels by Cannabidiol, One of the Principal Therapeutic Cannabinoids Derived from Cannabis sativa” (J Nat Prod, 2024)
Activity calls are given as the source filed them. No cut-off for these calls is given here.

Columns and labels:
[1] = molecular target: T1, Calcium-activated potassium channel subunit alpha-1 (Homo sapiens, UniProt Q12791); experiment: Inhibition of human KCNMA1 expressed in HEK293 cells assessed as reduction in amplitude current at 1 uM by inside-out configuration based patch clamp method; format: cell-based
[2] = molecular target: T1, Calcium-activated potassium channel subunit alpha-1; experiment: Inhibition of human KCNMA1 expressed in HEK293 cells assessed as reduction in amplitude current at 10 uM by inside-out configuration based patch clamp method relative to control; format: cell-based
[3] = molecular target: T1, Calcium-activated potassium channel subunit alpha-1; experiment: Inhibition of human KCNMA1 expressed in HEK293 cells assessed as reduction in 100+ mV pulse elicited current by inside-out configuration based patch clamp method; format: cell-based
[4] = molecular target: T1, Calcium-activated potassium channel subunit alpha-1; experiment: Inhibition of human KCNMA1 expressed in HEK293 cells assessed as decrease in maximal conductance at 0.3 to 10 uM by inside-out configuration based patch clamp method; format: cell-based; conditions: dose 0.3-10 µM
[5] = molecular target: T1, Calcium-activated potassium channel subunit alpha-1; experiment: Inhibition of human KCNMA1 expressed in HEK293 cells assessed as shift in activation curve to depolarized voltage (deltaV1/2) at 0.3 to 10 uM by inside-out configuration based patch clamp method; format: cell-based; conditions: dose 0.3-10 µM
[6] = molecular target: T1, Calcium-activated potassium channel subunit alpha-1; experiment: Inhibition of human KCNMA1 expressed in HEK293 cells assessed increase in time constant value of voltage activation at 1 uM by inside-out configuration based patch clamp method; format: cell-based
[7] = molecular target: T1, Calcium-activated potassium channel subunit alpha-1; experiment: Inhibition of human KCNMA1 expressed in HEK293 cells assessed effect on deactivation kinetics at 1 uM by inside-out configuration based patch clamp method; format: cell-based
[8] = molecular target: T1, Calcium-activated potassium channel subunit alpha-1; experiment: Reversible inhibition of human KCNMA1 expressed in HEK293 cells at 1 uM by whole cell configuration based patch clamp method
[9] = molecular target: T1, Calcium-activated potassium channel subunit alpha-1; experiment: Inhibition of human KCNMA1 expressed in HEK293 cells assessed as reduction in maximal conductance at 1 uM by whole cell configuration based patch clamp method
[10] = molecular target: T1, Calcium-activated potassium channel subunit alpha-1; experiment: Inhibition of human KCNMA1 expressed in HEK293 cells assessed as shift to depolarized potential at 1 uM by whole cell configuration based patch clamp method
[11] = molecular target: T1, Calcium-activated potassium channel subunit alpha-1; experiment: Inhibition of human KCNMA1 expressed in HEK293 cells assessed as reduction in voltage activation kinetics at 1 uM by whole cell configuration based patch clamp method
[12] = molecular target: T1, Calcium-activated potassium channel subunit alpha-1; experiment: Inhibition of human KCNMA1 expressed in HEK293 cells assessed as decrease in open probability at 3 uM under single channel current; format: cell-based
[13] = molecular target: T1, Calcium-activated potassium channel subunit alpha-1; experiment: Inhibition of human KCNMA1 expressed in HEK293 cells assessed as reduction in open probability at 3 uM at -40 mV relative to control; format: cell-based
[14] = molecular target: T1, Calcium-activated potassium channel subunit alpha-1; experiment: Inhibition of human KCNMA1 expressed in HEK293 cells assessed as increase in mean closed times at 3 uM at -40 mV (reference value: 33=/-12 ms); format: cell-based
[15] = molecular target: T1, Calcium-activated potassium channel subunit alpha-1; experiment: Inhibition of human KCNMA1 expressed in HEK293 cells assessed as reduction in unitary conductance at 3 uM (reference value: 242+/-10 pS); format: cell-based

T1 sequence (Q12791 whole entry): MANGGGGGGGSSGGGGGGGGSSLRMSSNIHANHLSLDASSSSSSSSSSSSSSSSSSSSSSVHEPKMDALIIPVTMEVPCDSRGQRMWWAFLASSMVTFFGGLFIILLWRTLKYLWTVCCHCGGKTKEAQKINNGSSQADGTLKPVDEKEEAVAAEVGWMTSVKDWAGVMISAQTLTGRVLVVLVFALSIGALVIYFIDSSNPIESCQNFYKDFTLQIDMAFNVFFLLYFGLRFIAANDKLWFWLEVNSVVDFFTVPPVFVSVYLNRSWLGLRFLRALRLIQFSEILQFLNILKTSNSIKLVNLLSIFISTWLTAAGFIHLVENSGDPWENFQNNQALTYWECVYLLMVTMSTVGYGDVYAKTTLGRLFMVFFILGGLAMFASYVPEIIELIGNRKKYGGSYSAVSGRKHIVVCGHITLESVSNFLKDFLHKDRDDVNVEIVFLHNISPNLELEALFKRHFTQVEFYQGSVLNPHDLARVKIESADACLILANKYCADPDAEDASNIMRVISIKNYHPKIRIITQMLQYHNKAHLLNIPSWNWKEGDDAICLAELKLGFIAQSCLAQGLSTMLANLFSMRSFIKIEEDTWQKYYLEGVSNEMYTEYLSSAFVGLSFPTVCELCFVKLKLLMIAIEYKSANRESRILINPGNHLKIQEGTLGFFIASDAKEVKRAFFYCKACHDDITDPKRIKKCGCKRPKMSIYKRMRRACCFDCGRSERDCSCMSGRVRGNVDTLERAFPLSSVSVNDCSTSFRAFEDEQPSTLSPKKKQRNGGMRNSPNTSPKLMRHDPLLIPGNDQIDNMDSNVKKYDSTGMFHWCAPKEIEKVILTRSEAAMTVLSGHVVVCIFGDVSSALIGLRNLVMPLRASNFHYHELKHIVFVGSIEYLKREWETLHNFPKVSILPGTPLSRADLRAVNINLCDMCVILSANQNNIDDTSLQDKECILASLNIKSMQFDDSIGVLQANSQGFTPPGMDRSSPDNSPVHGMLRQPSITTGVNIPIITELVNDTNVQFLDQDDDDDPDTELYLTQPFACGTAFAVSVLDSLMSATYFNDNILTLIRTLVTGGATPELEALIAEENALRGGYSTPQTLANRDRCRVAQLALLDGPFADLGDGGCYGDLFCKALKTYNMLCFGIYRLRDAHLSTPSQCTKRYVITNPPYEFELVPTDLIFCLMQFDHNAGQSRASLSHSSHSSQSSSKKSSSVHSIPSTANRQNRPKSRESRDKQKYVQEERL

Structure (SMILES): C=C(C)[C@@H]1CCC(C)=C[C@H]1c1c(O)cc(CCCCC)cc1O [CANNABIDIOL]
- inhibition [1]: Active
- inhibition [2]: 100%
- IC50 [3]: 280 nM
- inhibition [4]: Active
- inhibition [5]: Active
- inhibition [6]: Active
- inhibition [7]: inactive
- inhibition [8]: Active
- inhibition [9]: Active
- inhibition [10]: Active
- inhibition [11]: Active
- inhibition [12]: Active
- inhibition [13]: 87.4%
- Time [14]: 9.11e-05 h
- Time [15]: 182 pS
